Source: a compilation of properties of binary mixtures (doi:10.1016/j.tca.2013.02.002)

Experiment: xn = mol fraction of the nth substance listed
Conditions: 101 kPa

CS(C)=O + CC[NH+](CC)CC.O=S(=O)([O-])O
x1 = 1
Conditions | speed of sound [m/s] | viscosity [mPa·s]
298.15 K | 1496 | 1.99
303.15 K | 1472 | 1.8
308.15 K | 1460 | 1.65

CC[NH+](CC)CC.O=S(=O)([O-])O + CS(C)=O
Conditions | speed of sound, 298.15 K [m/s] | speed of sound, 303.15 K [m/s] | speed of sound, 308.15 K [m/s] | viscosity, 298.15 K [mPa·s] | viscosity, 303.15 K [mPa·s] | viscosity, 308.15 K [mPa·s]
x1 = 0.011 | – | – | 1468 | – | – | 2.8
x2 = 0 | 1874 | 1871 | 1866 | 235 | 153 | 138
x2 = 0.0244 | – | 1867 | 1863 | – | 148 | 134
x2 = 0.0557 | 1861 | 1859 | 1857 | 219 | 142 | 129
x2 = 0.108 | 1852 | 1850 | 1850 | 204 | 132 | 120
x2 = 0.1556 | 1838 | 1836 | 1830 | 190 | 123 | 112
x2 = 0.199 | – | 1820 | 1822 | – | 115 | 105
x2 = 0.2473 | 1812 | 1808 | – | 165 | 106 | –
x2 = 0.3279 | 1786 | 1778 | 1778 | 144 | 92 | 85.4
x2 = 0.4004 | 1758 | 1748 | – | 125 | 79.3 | –
x2 = 0.4964 | 1720 | 1708 | 1706 | 101 | 63.8 | 60.6
x2 = 0.5798 | 1684 | 1670 | 1666 | 81.1 | 51.1 | 49.2
x2 = 0.653 | 1652 | – | 1632 | 64.6 | – | 39.59
x2 = 0.7376 | 1614 | 1596 | 1590 | 46.7 | 29.42 | 29.13
x2 = 0.7812 | 1594 | 1576 | 1568 | 38.2 | 24.22 | 23.96
x2 = 0.8269 | 1574 | 1554 | 1546 | 29.63 | 19.13 | 18.72
x2 = 0.8772 | 1550 | 1530 | 1520 | 20.8 | 13.67 | 13.35
x2 = 0.9156 | 1534 | 1514 | 1502 | 14.31 | 9.78 | 9.41
x2 = 0.9539 | – | 1495 | 1484 | – | 6.27 | 5.84
